Source: ChEMBL document CHEMBL1201862, “PubChem BioAssay data set” (2004)
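Protocol summary: plate cells (96-well), add compound at 5 concentrations, incubate 48 h, interpolate endpoints linearly. GI50: concentration for 50% inhibition of growth.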 The source made the active and inactive calls. No stated cut-off is given here; in the data, active = GI50 up to about 1.1 µM and inactive = higher.

How the values were obtained:
Assay in all cases: NCI-60 cell line screen, 48 h
A549 = test system: A549
SNB-78 = test system: SNB-78
TK-10 = test system: TK-10
XF498 = test system: XF498
CCRF-CEM = test system: CCRF-CEM
RXF 393 = test system: RXF 393
RPMI-8226 = test system: RPMI-8226
OVCAR-5 = test system: OVCAR-5
HOP-62 = test system: HOP-62
SNB-19 = test system: SNB-19
NCI-H226 = test system: NCI-H226
HCT-15 = test system: HCT-15
SF-295 = test system: SF-295
DMS-273 = test system: DMS-273
UACC-257 = test system: UACC-257
SF-268 = test system: SF-268
NCI-H23 = test system: NCI-H23
NCI-H522 = test system: NCI-H522

Compound | GI50 (A549) | GI50 (SNB-78) | GI50 (TK-10) | GI50 (XF498) | GI50 (CCRF-CEM) | GI50 (RXF 393) | GI50 (RPMI-8226) | GI50 (OVCAR-5) | GI50 (HOP-62) | GI50 (SNB-19) | GI50 (NCI-H226) | GI50 (HCT-15) [µM] | GI50 (SF-295) | GI50 (DMS-273) | GI50 (UACC-257) | GI50 (SF-268) | GI50 (NCI-H23) | GI50 (NCI-H522)
CN[C@H](C)[C@@H](OC)c1ccccc1 | > 100 µM (inactive) | > 100 µM (inactive) | > 100 µM (inactive) | > 100 µM (inactive) | > 100 µM (inactive) | > 100 µM (inactive) | > 100 µM (inactive) | > 100 µM (inactive) | > 100 µM (inactive) | > 100 µM (inactive) | > 100 µM (inactive) | > 100 | > 100 µM (inactive) | > 100 µM (inactive) | > 100 µM (inactive) | – | – | –
CCN(CC)CCNC(=O)c1ccccc1Nc1c(Cl)cccc1Cl | 17 µM (inactive) | 16.4 µM (inactive) | 12.1 µM (inactive) | 4.19 µM (inactive) | 14.1 µM (inactive) | 12.3 µM (inactive) | 12.2 µM (inactive) | 7.55 µM (inactive) | 11.3 µM (inactive) | 16.4 µM (inactive) | 17.8 µM (inactive) | 12.6 | – | 16.5 µM (inactive) | 15.1 µM (inactive) | 18.2 µM (inactive) | 18.2 µM (inactive) | –
COC1=CC(=O)C2C(C1=O)[C@@H]1c3ccccc3OC[C@H]21 (stereo partly drawn) | > 100 µM (inactive) | > 100 µM (inactive) | > 100 µM (inactive) | – | > 100 µM (inactive) | > 100 µM (inactive) | > 100 µM (inactive) | > 100 µM (inactive) | > 100 µM (inactive) | > 100 µM (inactive) | > 100 µM (inactive) | > 10 | > 100 µM (inactive) | > 100 µM (inactive) | – | > 100 µM (inactive) | > 100 µM (inactive) | 49.9 µM (inactive)
CC(=O)OC1(C#N)CC2OC1C1NC21 (stereo not drawn) | > 100 µM (inactive) | > 100 µM (inactive) | > 100 µM (inactive) | > 100 µM (inactive) | > 100 µM (inactive) | > 100 µM (inactive) | > 100 µM (inactive) | > 100 µM (inactive) | > 100 µM (inactive) | > 100 µM (inactive) | > 100 µM (inactive) | > 100 | – | – | – | > 100 µM (inactive) | > 100 µM (inactive) | > 100 µM (inactive)
N=C(N)NS(=O)(=O)c1ccc(NCc2c3ccccc3[n+]([O-])c3ccccc23)cc1 | 17.6 µM (inactive) | 31.6 µM (inactive) | > 100 µM (inactive) | – | 5.64 µM (inactive) | – | 12.4 µM (inactive) | > 100 µM (inactive) | 15.9 µM (inactive) | 18.8 µM (inactive) | 9.55 µM (inactive) | 18.4 | 18.7 µM (inactive) | 9.35 µM (inactive) | 74.6 µM (inactive) | 11.8 µM (inactive) | 21.8 µM (inactive) | 29.9 µM (inactive)
N#CC(C(=N/O)/C(=N/O)C(C#N)c1ccc(Cl)cc1)c1ccc(Cl)cc1 (stereo not drawn) | > 100 µM (inactive) | 23.4 µM (inactive) | > 100 µM (inactive) | > 100 µM (inactive) | – | 46.7 µM (inactive) | 40.5 µM (inactive) | > 100 µM (inactive) | > 100 µM (inactive) | > 100 µM (inactive) | 75.5 µM (inactive) | 55.2 | > 100 µM (inactive) | > 100 µM (inactive) | > 100 µM (inactive) | > 100 µM (inactive) | 92.5 µM (inactive) | –
CCc1ccccc1NC(=O)C1=C(C)NC(C)=C(C(=O)Nc2ccccc2CC)C1c1ccc2c(c1)OCO2 | 29.1 µM (inactive) | 34 µM (inactive) | 47.6 µM (inactive) | 23 µM (inactive) | 19.5 µM (inactive) | 20 µM (inactive) | 14.5 µM (inactive) | 27.1 µM (inactive) | 17.1 µM (inactive) | 49.3 µM (inactive) | 24.3 µM (inactive) | – | 33.3 µM (inactive) | – | 30.9 µM (inactive) | 25.2 µM (inactive) | 31.5 µM (inactive) | 24.1 µM (inactive)
O=C(NC1CCC[C@H]1OC(=O)c1ccccc1)c1ccccc1 (stereo partly drawn) | 40.4 µM (inactive) | > 100 µM (inactive) | > 100 µM (inactive) | 35.3 µM (inactive) | > 100 µM (inactive) | > 100 µM (inactive) | – | > 100 µM (inactive) | – | > 100 µM (inactive) | 13.7 µM (inactive) | – | > 100 µM (inactive) | 95.7 µM (inactive) | > 100 µM (inactive) | 86.5 µM (inactive) | 31 µM (inactive) | –
Nc1ccccc1S(=O)(=O)N(CC(=O)O)c1ccccc1 | > 100 µM (inactive) | – | > 100 µM (inactive) | > 100 µM (inactive) | > 100 µM (inactive) | > 100 µM (inactive) | > 100 µM (inactive) | > 100 µM (inactive) | – | > 100 µM (inactive) | – | > 100 | – | > 100 µM (inactive) | > 100 µM (inactive) | > 100 µM (inactive) | > 100 µM (inactive) | > 100 µM (inactive)
